Results reported in ChEMBL document CHEMBL1130370, “Novel hydroxyphosphonate inhibitors of CD-45 tyrosine phosphatase” (Bioorg Med Chem Lett, 1997).

Molecular target: T1, Receptor-type tyrosine-protein phosphatase C (Homo sapiens, UniProt P08575)
T1 sequence (P08575 whole entry): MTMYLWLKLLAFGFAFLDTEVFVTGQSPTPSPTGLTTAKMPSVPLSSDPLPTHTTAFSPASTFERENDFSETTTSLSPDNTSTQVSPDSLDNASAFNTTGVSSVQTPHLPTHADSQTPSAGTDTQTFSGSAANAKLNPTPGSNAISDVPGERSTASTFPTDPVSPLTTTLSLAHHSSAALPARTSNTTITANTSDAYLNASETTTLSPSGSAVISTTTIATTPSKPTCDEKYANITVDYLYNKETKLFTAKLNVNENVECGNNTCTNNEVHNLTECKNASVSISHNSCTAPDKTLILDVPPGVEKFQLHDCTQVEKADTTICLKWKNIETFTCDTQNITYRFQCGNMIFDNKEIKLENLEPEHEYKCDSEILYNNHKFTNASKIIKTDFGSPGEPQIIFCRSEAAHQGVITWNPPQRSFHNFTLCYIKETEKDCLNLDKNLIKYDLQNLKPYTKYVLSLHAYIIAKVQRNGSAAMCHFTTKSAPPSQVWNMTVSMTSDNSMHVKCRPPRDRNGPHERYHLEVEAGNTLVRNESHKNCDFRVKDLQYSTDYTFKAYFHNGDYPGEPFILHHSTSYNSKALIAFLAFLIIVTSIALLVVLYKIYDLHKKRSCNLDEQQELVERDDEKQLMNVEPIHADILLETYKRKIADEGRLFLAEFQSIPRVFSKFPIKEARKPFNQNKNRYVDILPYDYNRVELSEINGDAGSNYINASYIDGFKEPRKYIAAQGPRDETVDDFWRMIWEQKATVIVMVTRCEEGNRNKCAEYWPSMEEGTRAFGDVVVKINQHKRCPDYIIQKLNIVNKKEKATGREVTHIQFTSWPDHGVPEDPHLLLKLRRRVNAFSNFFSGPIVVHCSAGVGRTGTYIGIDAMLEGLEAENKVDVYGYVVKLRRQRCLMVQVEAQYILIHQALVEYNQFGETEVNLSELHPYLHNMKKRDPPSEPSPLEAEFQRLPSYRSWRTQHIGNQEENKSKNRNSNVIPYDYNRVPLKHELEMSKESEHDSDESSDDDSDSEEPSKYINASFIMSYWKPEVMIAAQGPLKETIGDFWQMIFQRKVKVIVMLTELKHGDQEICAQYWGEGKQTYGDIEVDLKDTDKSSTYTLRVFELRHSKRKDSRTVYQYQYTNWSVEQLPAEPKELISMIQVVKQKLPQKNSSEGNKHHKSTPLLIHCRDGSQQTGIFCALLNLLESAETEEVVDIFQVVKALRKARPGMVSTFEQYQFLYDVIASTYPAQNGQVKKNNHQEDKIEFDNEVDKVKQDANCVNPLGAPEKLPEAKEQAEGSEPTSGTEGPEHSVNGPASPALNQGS
Experiment: Tested for inhibitory activity against CD45 protein-tyrosine phosphatase of Jurkat cell membrane at 1000 uM
Format: cell-based

| SMILES | IC50 |
| --- | --- |
| CC(O)(c1cccc([N+](=O)[O-])c1)P(=O)(O)O (stereo unspecified) | 58 µM |
| O=[N+]([O-])c1cccc(C(O)P(=O)(O)O)c1 (stereo unspecified) | 10 µM |
| O=[N+]([O-])c1ccc(C(O)P(=O)(O)O)cc1 (stereo unspecified) | 28 µM |

Molecular target: T2, Receptor-type tyrosine-protein phosphatase C (Homo sapiens) (UniProt P08575)
T2 sequence (whole entry): T1 sequence (P08575 whole entry)
Experiment: Compound was tested for its inhibitory activity against CD45 protein-tyrosine phosphatase of Jurkat cell membrane at 1000 uM concentration
Format: cell-based

| SMILES | inhibition |
| --- | --- |
| O=P(O)(O)C(O)c1cccc2ccccc12 (stereo unspecified) | 53% |
| CC(O)(c1cccc([N+](=O)[O-])c1)P(=O)(O)O (stereo unspecified) | 97% |
| O=[N+]([O-])c1cccc(C(O)P(=O)(O)O)c1 (stereo unspecified) | 93% |
| O=P(O)(O)C(O)c1ccccc1 (stereo unspecified) | 39% |
| O=[N+]([O-])c1ccc(C(O)P(=O)(O)O)cc1 (stereo unspecified) | 98% |
| N#Cc1cccc(C(O)P(=O)(O)O)c1 (stereo unspecified) | 49% |
| O=[N+]([O-])c1cc(C(O)P(=O)(O)O)ccc1O (stereo unspecified) | 8% |

Molecular target: T2, Receptor-type tyrosine-protein phosphatase C (Homo sapiens)
Experiment: Compound was tested for its inhibitory activity against CD45 protein-tyrosine phosphatase of Jurkat cell membrane at 250 uM concentration
Format: cell-based

| SMILES | inhibition |
| --- | --- |
| O=P(O)(O)C(NCc1ccccc1)c1cccc2ccccc12 (stereo unspecified) | 23% |

Molecular target: T2, Receptor-type tyrosine-protein phosphatase C (Homo sapiens)
Experiment: Inhibition of CD45 protein-tyrosine phosphatase of Jurkat cell membrane at 500 uM.
Format: cell-based

| SMILES | inhibition |
| --- | --- |
| O=P(O)(O)C(O)c1ccncc1 (stereo unspecified) | 0% |
| COc1ccc(C(O)P(=O)(O)O)cc1 (stereo unspecified) | 42% |
| O=[N+]([O-])c1ccc(SC2CCCCC2)c(C(O)P(=O)(O)O)c1 (stereo unspecified) | 99% |
| CS(=O)(=O)c1ccc(C(O)P(=O)(O)O)cc1 (stereo unspecified) | 41% |
| O=P(O)(O)C(O)c1ccnc2ccccc12 (stereo unspecified) | 58% |
| Cc1cccc(C(O)P(=O)(O)O)c1 (stereo unspecified) | 27% |
| O=[N+]([O-])c1cc(C(O)P(=O)(O)O)cs1 (stereo unspecified) | 93% |
| O=[N+]([O-])c1cccc(CP(=O)(O)O)c1 | 17% |
| O=[N+]([O-])c1ccc(O)c(C(O)P(=O)(O)O)c1 (stereo unspecified) | 75% |
| O=P(O)(O)C(O)c1cccc(Cl)c1 (stereo unspecified) | 49% |
| Cc1cccc(C(c2ccccc2)P(=O)(O)O)c1 (stereo unspecified) | 8% |
| O=P(O)(O)C(O)c1ccc2ccccc2c1 (stereo unspecified) | 59% |
| Nc1cccc(C(O)P(=O)(O)O)c1 (stereo unspecified) | 23% |
| O=[N+]([O-])c1ccc(Cl)c(C(O)P(=O)(O)O)c1 (stereo unspecified) | 81% |
| O=P(O)(O)C(O)c1cccnc1 (stereo unspecified) | 13% |
| O=C(c1ccccc1)C(C(=O)c1ccccc1)(c1cccc2ccccc12)P(=O)(O)O | 8% |
| O=P(O)(O)C(O)c1cccc(O)c1 (stereo unspecified) | 0% |
| O=P(O)(O)C(O)c1ccccn1 (stereo unspecified) | 2% |

Molecular target: not listed separately
Experiment: Compound was tested for its inhibitory activity against Osteoclastic acid phosphatase
Set-up: species or system Homo sapiens

| SMILES | IC50 |
| --- | --- |
| O=C(c1ccccc1)C(C(=O)c1ccccc1)(c1cccc2ccccc12)P(=O)(O)O | 1.4 µM |

Molecular target: T3, Prostatic acid phosphatase (Homo sapiens, UniProt P15309)
T3 sequence (P15309 whole entry): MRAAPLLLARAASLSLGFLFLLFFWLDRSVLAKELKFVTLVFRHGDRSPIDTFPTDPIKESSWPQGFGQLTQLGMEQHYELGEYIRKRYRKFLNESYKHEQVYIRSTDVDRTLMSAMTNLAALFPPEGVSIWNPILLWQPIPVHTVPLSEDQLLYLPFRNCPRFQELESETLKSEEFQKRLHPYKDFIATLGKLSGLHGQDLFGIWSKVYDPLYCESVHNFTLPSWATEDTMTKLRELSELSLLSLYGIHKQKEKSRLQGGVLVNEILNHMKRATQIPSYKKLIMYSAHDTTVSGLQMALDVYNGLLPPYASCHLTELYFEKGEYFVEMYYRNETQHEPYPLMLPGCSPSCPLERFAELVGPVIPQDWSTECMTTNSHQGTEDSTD
Experiment: Compound was tested for its inhibitory activity against human prostatic acid phosphatase

| SMILES | IC50 |
| --- | --- |
| O=P(O)(O)C(NCc1ccccc1)c1cccc2ccccc12 (stereo unspecified) | 0.0086 µM |
